# Measured values published in ChEMBL document CHEMBL1208714, “Dimeric cyclohexane-1,3-dione oximes inhibit wheat acetyl-CoA carboxylase and show anti-malarial activity” (Bioorg Med Chem Lett, 2010).
# Activity calls are given as the source filed them. No cut-off for these calls is given here.
# How the values were obtained:
# [1] = tested on: Plasmodium falciparum; assay: Antimalarial activity against Plasmodium falciparum D10; type: functional, organism-based
# [2] = Inhibition of maize ACC; design: species or system Zea mays
# [3] = tested on: acetyl-CoA carboxylase (Triticum aestivum); assay: Inhibition of wheat ACC at 20 uM
SMILES,IC50 [1] [µM],IC50 [2] [µM],inhibition [3]
CCCC(=O)c1c(C)cc(C)c(C2CC(=O)C(/C(CC)=N/OCC)=C(O)C2)c1C (stereo not drawn) [BUTROXYDIM],10,0.3,Active
CCSC(C)CC1CC(=O)C(/C(CC)=N/OC/C=C/Cl)=C(O)C1 (stereo not drawn) [CLETHODIM],> 250,0.02,
CCO/N=C(\CC)C1=C(O)CC(c2ccc(C3CC(=O)C(/C(CC)=N/OCC)=C(O)C3)cc2)CC1=O (stereo not drawn),6,,Active
C=CCO/N=C(\CCC)C1=C(O)CC(c2cccc(C3CC(=O)C(/C(CCC)=N/OCC=C)=C(O)C3)c2)CC1=O (stereo not drawn),2.5,,
CCO/N=C(\CC)C1=C(O)CC(c2c(C)cc(C)c(C(C)=O)c2C)CC1=O (stereo not drawn),> 10,,
CCC/C(=N\OC(c1ccccc1)c1ccccc1)C1=C(O)CC(c2cccc(C3CC(=O)C(/C(CCC)=N/OC(c4ccccc4)c4ccccc4)=C(O)C3)c2)CC1=O (stereo not drawn),25,,
CCO/N=C(\C)C1=C(O)CC(c2ccc(C3CC(=O)C(/C(C)=N/OCC)=C(O)C3)cc2)CC1=O (stereo not drawn),12,,
CCO/N=C(\CC)C1=C(O)CC(c2cccc(C3CC(=O)C(/C(CC)=N/OCC)=C(O)C3)c2)CC1=O (stereo not drawn),3,,
CCOC(=O)C(C)Oc1ccc(Oc2cnc3cc(Cl)ccc3n2)cc1 (stereo not drawn) [QUIZALOFOP ETHYL ESTER],> 100,> 1,
CCC/C(=N\OCC)C1=C(O)CC(c2ccc(C3CC(=O)C(/C(CCC)=N/OCC)=C(O)C3)cc2)CC1=O (stereo not drawn),5,,
CC(Oc1ccc(Oc2cnc3cc(Cl)ccc3n2)cc1)C(=O)O (stereo not drawn) [QUIZALOFOP],> 100,0.016,
CCC/C(=N\OCc1ccccc1)C1=C(O)CC(c2cccc(C3CC(=O)C(/C(CCC)=N/OCc4ccccc4)=C(O)C3)c2)CC1=O (stereo not drawn),12.5,,
CCC/C(=N\OCC)C1=C(O)CC(c2cccc(C3CC(=O)C(/C(CCC)=N/OCC)=C(O)C3)c2)CC1=O (stereo not drawn),4,,
CC/C(=N\OC/C=C/Cl)C1=C(O)CC(C2CCOCC2)CC1=O (stereo not drawn) [TEPRALOXYDIM],> 100,0.7,
CCO/N=C(\CC)C1=C(O)CC(c2c(C)cc(C)cc2C)CC1=O (stereo not drawn) [TRALKOXYDIM],> 100,0.52,
